In the test the target is T1, human Chk1 (GST-Chk1) (Homo sapiens, UniProt O14757).
T1 construct: made in house; host or cells: insect cells (baculovirus, Bac-to-Bac)
T1 sequence (O14757 1-476): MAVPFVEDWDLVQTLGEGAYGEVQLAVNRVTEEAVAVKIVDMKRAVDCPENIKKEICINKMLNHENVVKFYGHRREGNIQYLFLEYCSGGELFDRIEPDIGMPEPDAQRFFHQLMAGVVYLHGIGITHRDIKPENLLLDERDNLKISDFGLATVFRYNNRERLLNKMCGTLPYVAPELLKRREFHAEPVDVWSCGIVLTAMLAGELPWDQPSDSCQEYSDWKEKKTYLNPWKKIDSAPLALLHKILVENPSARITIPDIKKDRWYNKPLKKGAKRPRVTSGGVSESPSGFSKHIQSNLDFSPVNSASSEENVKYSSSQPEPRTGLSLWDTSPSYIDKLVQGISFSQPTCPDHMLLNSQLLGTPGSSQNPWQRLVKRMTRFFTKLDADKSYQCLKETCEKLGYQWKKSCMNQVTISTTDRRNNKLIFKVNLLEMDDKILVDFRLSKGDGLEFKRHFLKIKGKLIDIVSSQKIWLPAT
Nature of the test: Chk1 FlashPlate kinase assay. The settings on record: 8.7 nM GST-Chk1, 1 uM ATP, 33P incorporation into peptide substrate. The class given is biochemical. An outline of the steps: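 GST-tagged human Chk1 (8.7 nM), baculovirus-expressed, with 3 uM biotinylated peptide, 1 uM ATP plus ^33P-γ-ATP, in MES/EGTA pH 8.0, DTT, Tween 20, 4% DMSO; 30 min at room temperature. EDTA-stopped; phosphopeptide captured on streptavidin FlashPlates and ^33P counted by scintillation.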

As usually defined, the IC50 is the concentration at which inhibition is half-maximal.

Structures can show the parent of a compound that is named as a salt.

Take `Cc1n[nH]c2c1c(=O)n(CC1CCCNC1)c1ccc(Br)cc21` (centres unmarked) [Example 48, 8-Bromo-3-methyl-5-piperidin-3-ylmethyl-1,5-dihydro-pyrazolo [4,3-c]quinolin-4-one]: the half-inhibitory concentration (IC50) is less than 1000 nM. For the compound `Cc1[nH]nc2c1c(=O)n(CCNS(=O)(=O)c1ccccc1)c1ccccc21` [Example 110, N-[2-(3-Methyl-4-oxo-2,4-dihydro-pyrazolo[4,3-c]quinolin-5-yl)-ethyl]-benzene sulfonamide], the IC50 lay within 1000 to 20000 nM. `Cc1n[nH]c2c1c(=O)n(CCCN)c1ccccc21` [Example 15, 5-(3-Amino-propyl)-3-methyl-1,5-dihydro-pyrazolo[4,3-c]quinolin-4-one] came in with an IC50 of less than 1000 nM. `Cc1[nH]nc2c1c(=O)n(CCCN)c1cc(Cl)ccc21` [Example 70, 5-(3-Amino-propyl)-7-chloro-3-methyl-2,5-dihydro-pyrazolo[4,3-c]quinolin-4-one] yielded an IC50 of less than 1000 nM.

As to `Cc1[nH]nc2c1c(=O)n(CCCNC(=O)CN)c1ccccc21` [Example 122, 2-Amino-N-[3-(3-methyl-4-oxo-2,4-dihydro-pyrazolo[4,3-c]quinolin-5-yl)-propyl]-acetamide], the IC50 was less than 1000 nM. `Cc1ccc2c(c1)c1n[nH]c(C)c1c(=O)n2CCCN` [Example 45, 5-(3-Amino-propyl)-3,8-dimethyl-2,5-dihydro-pyrazolo[4,3-c]quinolin-4-one] returned an IC50 of less than 1000 nM. For `Cc1n[nH]c2c1c(=O)n(CCCCNC(=O)Nc1ccccc1)c1ccc(Br)cc21` [Example 67, 1-[4-(8-Bromo-3-methyl-4-oxo-1,4-dihydro-pyrazolo[4,3-c]quinolin-5-yl)-butyl]-3-phenyl-urea] the value was less than 1000 nM; for `Cc1[nH]nc2c1c(=O)n(CCCNC(=O)c1ccc(Cl)cc1)c1ccccc21` [Example 60, 4-Chloro-N-[3-(3-methyl-4-oxo-2,4-dihydro-pyrazolo[4,3-c]quinolin-5-yl)-propyl]-benzamide], less than 1000 nM.

In turn, `Cc1[nH]nc2c1c(=O)n(CCCNC(=O)CCN)c1ccccc21` [Example 124, 3-Amino-N-[3-(3-methyl-4-oxo-2,4-dihydro-pyrazolo[4,3-c]quinolin-5-yl)-propyl]-propionamide] showed an IC50 of less than 1000 nM. In turn, `Cc1[nH]nc2c1c(=O)n(CCCNS(=O)(=O)c1ccccc1)c1ccccc21` [Example 83, N-[3-(3-Methyl-4-oxo-2,4-dihydro-pyrazolo[4,3-c]quinolin-5-yl)-propyl]-benzenesulfonamide] showed an IC50 of less than 1000 nM. For `COc1ccc(Cl)cc1NC(=O)NCCn1c(=O)c2c(C)n[nH]c2c2ccccc21` [Example 89, 1-(5-Chloro-2-methoxy-phenyl)-3-[2-(3-methyl-4-oxo-1,4-dihydro-pyrazolo[4,3-c]quinolin-5-yl)-ethyl]-urea] the value was 1000 to 20000 nM; for `Cc1[nH]nc2c1c(=O)n(CCCNC(=O)c1ccc(Cl)cc1)c1cc(Cl)ccc21` [Example 75, 4-Chloro-N-[3-(7-chloro-3-methyl-4-oxo-2,4-dihydro-pyrazolo[4,3-c]quinolin-5-yl)-propyl]-benzamide], less than 1000 nM. Compound `Cc1[nH]nc2c1c(=O)n(CCCNC(=O)C(N)Cc1ccc(OCc3ccccc3)cc1)c1ccccc21` (centres unmarked) [Example 107, 2-Amino-3-(4-benzyloxy-phenyl)-N-[3-(3-methyl-4-oxo-2,4-dihydro-pyrazolo[4,3-c]quinolin-5-yl)-propyl]-propionamide] came in with an IC50 of 1000 to 20000 nM. Compound `Cc1[nH]nc2c1c(=O)n(CCNC(=O)C1CCCCC1)c1ccccc21` [Example 93, Cyclohexanecarboxylic acid [2-(3-methyl4-oxo-2,4-dihydro-pyrazolo[4,3-c]quinolin-5-yl)-ethyl]-amide] returned an IC50 of 1000 to 20000 nM. Compound `CC(=O)OCCn1c(=O)c2c(C)n[nH]c2c2ccccc21` [Example 3, Acetic acid 2-(3-methyl-4-oxo-1,4-dihydro-pyrazolo[4,3-c]quinolin-5-yl)-ethyl ester] showed an IC50 of 1000 to 20000 nM. `Cc1n[nH]c2c1c(=O)n(CCN(C)C)c1ccccc21` [Example 7, 5-(2-Dimethylamino-ethyl)-3-methyl-1,5-dihydro-pyrazolo[4,3-c]quinolin-4-one hydrochloride] returned a half-maximal inhibitory concentration (IC50) of 1000 to 20000 nM.

With `Cc1[nH]nc2c1c(=O)n(CCCN(C)C)c1ccc(Br)cc21` [Example 18, 8-Bromo-5-(3-dimethylamino-propyl)-3-methyl-2,5-dihydro-pyrazolo[4,3-c]quinolin-4-one], the IC50 is less than 1000 nM. For `Cc1[nH]nc2c1c(=O)n(CCCNC(=O)CCC(NC(=O)OC(C)(C)C)C(=O)OC(C)(C)C)c1ccccc21` (centres unmarked) [Example 99, 2-tert-Butoxycarbonylamino-4-[3-(3-methyl-4-oxo-2,4-dihydro-pyrazolo[4,3-c]quinolin-5-yl)-propylcarbamoyl]-butyric acid tert-butyl ester] the value was 1000 to 20000 nM; for `Cc1n[nH]c2c1c(=O)n(CCNC(=O)Nc1ccccc1)c1ccccc21` [Example 87], 1000 to 20000 nM; for `Cc1n[nH]c2c1c(=O)n(CCN)c1ccccc21` [Example 11, 5-(2-Amino-ethyl)-3-methyl-1,5-dihydro-pyrazolo[4,3-c]quinolin-4-one], less than 1000 nM.

Turning to `NCCCn1c(=O)c2c[nH]nc2c2cc(Cl)ccc21` [Example 109, 5-(3-Amino-propyl)-8-chloro-2,5-dihydro-pyrazolo[4,3-c]quinolin-4-one], the IC50 was less than 1000 nM. As to `Cc1[nH]nc2c1c(=O)n(CCCNC(=O)CCCN)c1ccccc21` [Example 106, 4-Amino-N-[3-(3-methyl-4-oxo-2,4-dihydro-pyrazolo[4,3-c]quinolin-5-yl)-propyl]-butyramide], the IC50 is less than 1000 nM. Compound `Cc1n[nH]c2c1c(=O)n(CCCNC(=O)OC(C)(C)C)c1ccc(Cl)cc21` [Example 31, [3-(8-Chloro-3-methyl-4-oxo-1,4-dihydro-pyrazolo[4,3-c]quinolin-5-yl)-propyl]-carbamic acid tert-butyl ester] had an IC50 of less than 1000 nM. `Cc1n[nH]c2c1c(=O)n(CCCCNC(=O)c1ccccc1)c1ccc(Br)cc21` [Example 36, N-[4-(8-Bromo-3-methyl-4-oxo-1,4-dihydro-pyrazolo[4,3-c]quinolin-5-yl)-butyl]-benzamide] showed an IC50 of less than 1000 nM. As to `Cc1[nH]nc2c1c(=O)[nH]c1c(OCCCNC(=O)OC(C)(C)C)cccc12` [Example 24, [3-(3-Methyl-4-oxo-4,5-dihydro-2H-pyrazolo[4,3-c]quinolin-6-yloxy)-propyl]-carbamic acid tert-butyl ester], the IC50 is more than 20000 nM. `Cc1[nH]nc2c1c(=O)n(CCCNC(=O)c1ccc(Cl)c(Cl)c1)c1ccccc21` [Example 76, 3,4-Dichloro-N-[3-(3-methyl-4-oxo-2,4-dihydro-pyrazolo[4,3-c]quinolin-5-yl)-propyl]-benzamide] gave an IC50 of less than 1000 nM. With `Cc1[nH]nc2c1c(=O)[nH]c1c(OCCCN)cccc12` [Example 25, 6-(3-Amino-propoxy)-3-methyl-2,5-dihydro-pyrazolo[4,3-c]quinolin-4-one], the IC50 fell in the range of 1000 to 20000 nM.

`Cc1[nH]nc2c1c(=O)n(CCCN)c1ccc(Cl)cc21` [Example 32, 5-(3-Amino-propyl)-8-chloro-3-methyl-1,5-dihydro-pyrazolo[4,3-c]quinolin-4-one]: the half-inhibitory concentration (IC50) is less than 1000 nM. For the compound `Cc1[nH]nc2c1c(=O)n(CCCNC(=O)c1ccc(OC(F)(F)F)cc1)c1ccccc21` [Example 125, N-[3-(3-Methyl-4-oxo-2,4-dihydro-pyrazolo[4,3-c]quinolin-5-yl)-propyl]-4-trifluoromethoxy-benzamide], the IC50 is less than 1000 nM. Turning to `Cc1[nH]nc2c1c(=O)n(CCCNC(=O)c1ccc(F)cc1F)c1ccccc21` [Example 63, 2,4-Difluoro-N-[3-(3-methyl-4-oxo-2,4-dihydro-pyrazolo[4,3-c]quinolin-5-yl)-propyl]-benzamide], the half-maximal inhibitory concentration (IC50) was less than 1000 nM. `Cc1n[nH]c2c1c(=O)n(CCNC(=O)OC(C)(C)C)c1ccccc21` [Example 1, [2-(3-Methyl-4-oxo-1,4-dihydro-pyrazolo[4,3-c]quinolin-5-yl)-ethyl]-carbamic acid tert-butyl ester] showed an IC50 of 1000 to 20000 nM. In turn, `Cc1[nH]nc2c1c(=O)n(CCCNC(=O)OCc1ccccc1Br)c1ccccc21` [Example 119, [3-(3-Methyl-4-oxo-2,4-dihydro-pyrazolo[4,3-c]quinolin-5-yl)-propyl]-carbamic acid 2-bromo-benzyl ester] displayed an IC50 of less than 1000 nM.

`Cc1n[nH]c2c1c(=O)n(CCNCc1ccccc1)c1ccccc21` [Example 4, 5-(2-Benzylamino-ethyl)-3-methyl-1,5-dihydro-pyrazolo[4,3-c]quinolin-4-one]: the IC50 is less than 1000 nM.

On to `Cc1[nH]nc2c1c(=O)n(CCCN)c1ccc([N+](=O)[O-])cc21` [Example 55, 5-(3-Amino-propyl)-3-methyl-8-nitro-2,5-dihydro-pyrazolo[4,3-c]quinolin-4-one], for which the 50% inhibitory concentration (IC50) was less than 1000 nM. For `Cc1n[nH]c2c1c(=O)n(CCCNC(=O)OCc1ccccc1)c1ccccc21` [Example 13, [3-(3-Methyl-4-oxo-1,4-dihydro-pyrazolo[4,3-c]quinolin-5-yl)-propyl]-carbamic acid benzyl ester] the value was less than 1000 nM.

The values are drawn from patent US20050245563A1 (Millennium Pharmaceuticals, Inc., priority 2003, published 2005).
